In patent US10227344B2, “CK2 inhibitors, compositions and methods thereof” (Polaris Pharmaceuticals, Inc., priority 2016, dated 2019):

How the values were obtained:
[1] = target: purified CK2α enzyme (Homo sapiens, UniProt P68400); assay: CK2 Protein Kinase Inhibition Assay (coupled PK/LDH assay); format: biochemical; conditions: CK2 enzyme 25 nM, 100 μM ATP, 37° C., Morrison equation
Summary of the method: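 Purified CK2α at 25 nM final, 1.5 mM peptide substrate, 100 μM ATP, pH 8.25 Tris buffer; compounds pre-incubated 10 min at 37° C. ADP coupled via PK/LDH to NADH loss at 340 nm over 30 min, 37° C. Ki from rate versus concentration by Morrison equation, triplicate points.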

Sequence of purified CK2α enzyme (P68400 whole entry): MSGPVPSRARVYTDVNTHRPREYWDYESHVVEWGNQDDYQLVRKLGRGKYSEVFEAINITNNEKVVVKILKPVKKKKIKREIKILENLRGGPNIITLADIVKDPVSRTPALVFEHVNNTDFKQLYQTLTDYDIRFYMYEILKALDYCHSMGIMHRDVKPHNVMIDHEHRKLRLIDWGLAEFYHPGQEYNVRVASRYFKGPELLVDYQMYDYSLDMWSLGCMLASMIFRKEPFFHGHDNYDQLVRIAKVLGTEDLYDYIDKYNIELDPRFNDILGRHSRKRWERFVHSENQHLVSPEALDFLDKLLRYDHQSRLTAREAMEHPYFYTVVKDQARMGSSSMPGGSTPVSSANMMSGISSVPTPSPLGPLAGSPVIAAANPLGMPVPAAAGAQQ

Structure (SMILES) | Ki [1] [nM] | melting point [°C]
C[S+]([O-])Cc1cc(Nc2cc(NC3CC3)n3ncc(C#N)c3n2)ccc1C1=CCCNC1.O=C(O)C(F)(F)F (racemic) [Example 53, (±)-7-(cyclopropylamino)-5-((3-((methylsulfinyl)methyl)-4-(1,2,5,6-tetrahydropyridin-3-yl)phenyl)amino)pyrazolo[1,5-a]pyrimidine-3-carbonitrile mono trifluoroacetic acid salt] | 2.5 to 10 | 126 to 130
COc1ccc(Nc2cc(NC3CC3)n3ncc(C#N)c3n2)cc1CS(C)(=O)=O [Example 18, 7-(Cyclopropylamino)-5-((4-methoxy-3-((methylsulfonyl)methyl)phenyl)amino)pyrazolo[1,5-a]pyrimidine-3-carbonitrile] | < 2.5 | 233 to 235
CS(=O)(=O)Cc1cc(Nc2cc(NC3CC3)n3ncc(C#N)c3n2)ccc1OC(F)F [Example 20, 7-(Cyclopropylamino)-5-((4-(difluoromethoxy)-3-((methylsulfonyl)methyl)phenyl)amino)pyrazolo[1,5-a]pyrimidine-3-carbonitrile] | < 2.5 | > 260
CS(=O)(=O)Cc1cc(Nc2cc(NC3CC3)n3ncc(C#N)c3n2)ccc1OCCN.Cl [Example 26, 5-((4-(2-aminoethoxy)-3-((methylsulfonyl)methyl)phenyl)amino)-7-(cyclopropylamino)pyrazolo[1,5-a]pyrimidine-3-carbonitrile hydrochloric acid salt] | 2.5 to 10 | 238 to 240
CS(=O)(=O)Cc1cc(Nc2cc(NC3CC3)n3ncc(C#N)c3n2)ccc1N1CCC1 [Example 32, 5-((4-(Azetidin-1-yl)-3-((methylsulfonyl)methyl)phenyl)amino)-7-(cyclopropylamino)pyrazolo[1,5-a]pyrimidine-3-carbonitrile] | < 2.5 | 220 to 222
